# Laboratory results taken from patent publication US20230234967A1, “Fused Azole Heterocycles as AHR Antagonists” (Senda Biosciences, Inc., priority 2021, published 2023).
# Biological target: T1, AHR (Homo sapiens, UniProt P35869)
# T1 construct: other cell line with a DRE-luciferase reporter stably transfected; endogenous in cells; host or cells: Human HepG2 liver carcinoma AhR-Lucia reporter cells
# T1 sequence (P35869 11-848): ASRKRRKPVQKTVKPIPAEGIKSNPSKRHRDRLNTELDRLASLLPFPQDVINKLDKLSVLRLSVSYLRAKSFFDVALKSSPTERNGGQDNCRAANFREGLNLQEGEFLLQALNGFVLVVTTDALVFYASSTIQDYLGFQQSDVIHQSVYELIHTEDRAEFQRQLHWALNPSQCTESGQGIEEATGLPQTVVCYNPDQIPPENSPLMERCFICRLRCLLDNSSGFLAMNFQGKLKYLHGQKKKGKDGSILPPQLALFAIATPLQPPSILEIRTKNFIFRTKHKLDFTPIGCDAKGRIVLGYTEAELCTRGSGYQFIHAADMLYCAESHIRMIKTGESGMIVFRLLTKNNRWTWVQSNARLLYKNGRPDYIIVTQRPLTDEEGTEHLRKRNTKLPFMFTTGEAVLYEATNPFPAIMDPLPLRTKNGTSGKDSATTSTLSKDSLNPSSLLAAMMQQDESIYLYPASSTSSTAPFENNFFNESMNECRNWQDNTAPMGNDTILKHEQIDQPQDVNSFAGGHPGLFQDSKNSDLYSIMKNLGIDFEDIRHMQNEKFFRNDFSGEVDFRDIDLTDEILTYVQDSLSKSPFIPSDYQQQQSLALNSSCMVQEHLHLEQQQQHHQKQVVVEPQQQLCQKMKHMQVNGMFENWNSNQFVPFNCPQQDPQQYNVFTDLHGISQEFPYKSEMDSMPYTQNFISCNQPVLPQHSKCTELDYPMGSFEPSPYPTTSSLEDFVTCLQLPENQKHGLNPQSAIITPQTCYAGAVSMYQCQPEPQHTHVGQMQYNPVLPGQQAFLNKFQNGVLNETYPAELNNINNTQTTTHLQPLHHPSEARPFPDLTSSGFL
# Test: DRE-Luciferase Reporter Assay (HepG2 AhR-Lucia reporter cells)
# Type: cell-based
# Details: AHR activating ligand at its EC50, luciferase read-out, read-out: HEPG2 Luc IC50
# Description: Example 27: DRE-Luciferase Reporter Assay
# AHR binds to Dioxin Responsive Elements (DRE) upstream of genes that it activates. One measure of AHR activity is activation of a reporter gene, such as luciferase, downstream of one or multiple DRE elements. Luciferase activity will reflect activation and inhibition of AHR in the cells expressing his reporter. 20000 Human HepG2 liver carcinoma—AhR-Lucia reporter cells or Human HT29 colon adenocarcinoma—AhR reporter cells or other cell line with a DRE-luciferase reporter stably transfected were plated in Eagle's Minimal Essential Medium, 10% heat-inactivated FBS, 1×non-essential amino acids Pen-Strep (10,000 U/mL) and Normocin (100 ug/mL) in plates (96-well, 384-well or other plates) and incubated overnight at 37° C. in a CO2 incubator and treated with and without AhR antagonists at a log dilution starting at 100 uM.
# After 1 hr that cells were plated an AHR activating ligand, such as TCDD, kynurenine, ITE (2-(1H-indole-3-ylcarbonyl)-4-thiazolecarboxylic methyl ester), VAF347, BNF (beta-naphthoflavone), FICZ (6-formylindolo(3,2-b) carbazole) or other AHR ligands at their specific EC50 concentration, were added to the cells with or without AHR antagonist.
# Cells were incubated for 24 or 48 hours or another time point and then, supernatant was analyzed for determination of luciferase activity as a read-out of the AHR activation or inhibition. Luciferase was measured with the commercial kit QUANTI-Luc™ assay solution kit from Invivogen following the manufacturer's instructions.
# The level of luciferase with only agonist ligand added was the maximum signal while the luciferase with […] was the minimum signal. IC50 values were determined as the concentration which inhibits half of the luciferase activity. “A” indicates an IC50 value less than 100 nM, “B” indicates an IC50 between 100 and 500 nM, “C” indicates an IC50 above 500 nM.
row,SMILES,IC50
1,"COc1ccccc1-c1ccc2nc(NC(=O)c3ncnn3C)sc2n1 [Product 4, N-(5-(2-methoxyphenyl)thiazolo[5,4-b]pyridin-2-yl)-1-methyl-1H-1,2,4-triazole-5-carboxamide]",0.1 to 0.5 µM
2,"Cn1ncnc1C(=O)Nc1nc2ccc(-c3ccccc3C(F)(F)F)nc2s1 [Product 6, 1-Methyl-N-(5-(2-(trifluoromethyl)phenyl)thiazolo[5,4-b]pyridin-2-yl)-1H-1,2,4-triazole-5-carboxamide]",> 0.5 µM
3,"Cn1ncnc1C(=O)Nc1nc2ccc(-c3ccccc3C(F)F)nc2s1 [Product 7, N-(5-(2-(difluoromethyl)phenyl)thiazolo[5,4-b]pyridin-2-yl)-1-methyl-1H-1,2,4-triazole-5-carboxamide]",> 0.5 µM
4,"Cc1ccccc1-c1ccc2nc(NC(=O)c3cccnc3)sc2n1 [Product 9, N-(5-(o-tolyl)thiazolo[5,4-b]pyridin-2-yl)nicotinamide]",> 0.5 µM
5,"Cc1ccccc1-c1ccc2nc(NC(=O)c3ccncc3)sc2n1 [Product 10, N-(5-(o-tolyl)thiazolo[5,4-b]pyridin-2-yl)isonicotinamide]",> 0.5 µM
6,"Cn1ncnc1C(=O)Nc1nc2ccc(-c3cc(F)ccc3C(F)F)nc2s1 [Product 11, N-(5-(2-(difluoromethyl)-5-fluorophenyl)thiazolo[5,4-b]pyridin-2-yl)-1-methyl-1H-1,2,4-triazole-5-carboxamide]",> 0.5 µM
7,"COc1ccccc1-c1ccc2nc(NC(=O)c3cccnc3)sc2n1 [Product 13, N-(5-(2-methoxyphenyl)thiazolo[5,4-b]pyridin-2-yl)nicotinamide]",0.1 to 0.5 µM
8,"COc1ccccc1-c1ccc2nc(NC(=O)c3ccncc3)sc2n1 [Product 14, N-(5-(2-methoxyphenyl)thiazolo[5,4-b]pyridin-2-yl)isonicotinamide]",< 0.1 µM
9,"Cn1cc(-c2ccc3nc(NC(=O)c4ccnn4C)sc3n2)cn1 [Product 22, 1-Methyl-N-(5-(1-methyl-1H-pyrazol-4-yl)thiazolo[5,4-b]pyridin-2-yl)-1H-pyrazole-5-carboxamide]",0.1 to 0.5 µM
10,"CC(=O)Nc1nc2ccc(-c3ccccc3N(C)C)nc2s1 [Product 23, N-(5-(2-(dimethylamino)phenyl)thiazolo[5,4-b]pyridin-2-yl)acetamide]",> 0.5 µM
11,"Cn1nccc1C(=O)Nc1nc2ccc(-c3nccs3)nc2s1 [Product 28, 1-Methyl-N-(5-(thiazol-2-yl)thiazolo[5,4-b]pyridin-2-yl)-1H-pyrazole-5-carboxamide]",> 0.5 µM
12,"Cc1nc(-c2ccc3nc(NC(=O)c4ccnn4C)sc3n2)sc1C [Product 29, N-(5-(4,5-dimethylthiazol-2-yl)thiazolo[5,4-b]pyridin-2-yl)-1-methyl-1H-pyrazole-5-carboxamide]",0.1 to 0.5 µM
13,"Cc1cnc(-c2ccc3nc(NC(=O)c4ccnn4C)sc3n2)s1 [Product 30, 1-Methyl-N-(5-(5-methylthiazol-2-yl)thiazolo[5,4-b]pyridin-2-yl)-1H-pyrazole-5-carboxamide]",0.1 to 0.5 µM
14,"Cc1ncsc1-c1ccc2nc(NC(=O)c3ccnn3C)sc2n1 [Product 31, 1-Methyl-N-(5-(4-methylthiazol-5-yl)thiazolo[5,4-b]pyridin-2-yl)-1H-pyrazole-5-carboxamide]",0.1 to 0.5 µM
15,"Cc1csc(-c2ccc3nc(NC(=O)c4ccnn4C)sc3n2)n1 [Product 32, 1-Methyl-N-(5-(4-methylthiazol-2-yl)thiazolo[5,4-b]pyridin-2-yl)-1H-pyrazole-5-carboxamide]",> 0.5 µM
16,"Cc1nc(C)c(-c2ccc3nc(NC(=O)c4ccnn4C)sc3n2)s1 [Product 33, N-(5-(2,4-dimethylthiazol-5-yl)thiazolo[5,4-b]pyridin-2-yl)-1-methyl-1H-pyrazole-5-carboxamide]",0.1 to 0.5 µM

# Results, then the compound that gave them:
row,IC50,SMILES
1,> 0.5 µM,"Cn1nccc1C(=O)Nc1nc2ccc(-c3ccccc3C(F)(F)F)nc2s1 [Product 1, 1-methyl-N-(5-(2-(trifluoromethyl)phenyl)thiazolo[5,4-b]pyridin-2-yl)-1H-pyrazole-5-carboxamide]"
2,0.1 to 0.5 µM,"Cc1ccccc1-c1ccc2nc(NC(=O)c3ncnn3C)sc2n1 [Product 2, 1-Methyl-N-(5-(o-tolyl)thiazolo[5,4-b]pyridin-2-yl)-1H-1,2,4-triazole-5-carboxamide]"
3,0.1 to 0.5 µM,"Cn1nccc1C(=O)Nc1nc2ccc(-c3ccccc3C(F)F)nc2s1 [Product 3, N-(5-(2-(difluoromethyl)phenyl)thiazolo[5,4-b]pyridin-2-yl)-1-methyl-1H-pyrazole-5-carboxamide]"
4,> 0.5 µM,"Cn1nccc1C(=O)Nc1nc2ccc(-c3cc(F)ccc3C(F)F)nc2s1 [Product 5, N-(5-(2-(difluoromethyl)-5-fluorophenyl)thiazolo[5,4-b]pyridin-2-yl)-1-methyl-1H-pyrazole-5-carboxamide]"
5,0.1 to 0.5 µM,"COc1cccc(-c2ccc3nc(NC(=O)c4ccnn4C)sc3n2)c1 [Product 16, N-(5-(3-methoxyphenyl)thiazolo[5,4-b]pyridin-2-yl)-1-methyl-1H-pyrazole-5-carboxamide]"
6,> 0.5 µM,"CN(C)C(=O)c1cccc(-c2ccc3nc(NC(=O)c4ccnn4C)sc3n2)c1 [Product 17, N-(5-(3-(dimethylcarbamoyl)phenyl)thiazolo[5,4-b]pyridin-2-yl)-1-methyl-1H-pyrazole-5-carboxamide]"
7,> 0.5 µM,"CN(C)c1cccc(-c2ccc3nc(NC(=O)c4ccnn4C)sc3n2)c1 [Product 19, N-(5-(3-(dimethylamino)phenyl)thiazolo[5,4-b]pyridin-2-yl)-1-methyl-1H-pyrazole-5-carboxamide]"
8,< 0.1 µM,"CN(C)c1ccc(-c2ccc3nc(NC(=O)c4ccnn4C)sc3n2)cc1 [Product 20, N-(5-(4-(dimethylamino)phenyl)thiazolo[5,4-b]pyridin-2-yl)-1-methyl-1H-pyrazole-5-carboxamide]"
9,> 0.5 µM,"Cn1nccc1C(=O)Nc1nc2ccc(-c3ccccc3N3CCCC3)nc2s1 [Product 21, 1-Methyl-N-(5-(2-(pyrrolidin-1-yl)phenyl)thiazolo[5,4-b]pyridin-2-yl)-1H-pyrazole-5-carboxamide]"
10,> 0.5 µM,"Cn1nccc1C(=O)Nc1nc2ccc(-c3ccccc3O)nc2s1 [Product 24, N-(5-(2-hydroxyphenyl)thiazolo[5,4-b]pyridin-2-yl)-1-methyl-1H-pyrazole-5-carboxamide]"
11,0.1 to 0.5 µM,"Cn1nccc1C(=O)Nc1nc2ccc(-c3cccnc3)nc2s1 [Product 26, 1-Methyl-N-(5-(pyridin-3-yl)thiazolo[5,4-b]pyridin-2-yl)-1H-pyrazole-5-carboxamide]"
12,0.1 to 0.5 µM,"Cn1nccc1C(=O)Nc1nc2ccc(-c3ccccn3)nc2s1 [Product 27, 1-methyl-N-(5-(pyridin-2-yl)thiazolo[5,4-b]pyridin-2-yl)-1H-pyrazole-5-carboxamide]"
13,> 0.5 µM,"CC(C)C(=O)Nc1ccccc1-c1ccc2nc(NC(=O)c3ccnn3C)sc2n1 [Product 34, N-(5-(2-isobutyramidophenyl)thiazolo[5,4-b]pyridin-2-yl)-1-methyl-1H-pyrazole-5-carboxamide]"
14,> 0.5 µM,"CC(=O)Nc1ccccc1-c1ccc2nc(NC(=O)c3ccnn3C)sc2n1 [Product 35, N-(5-(2-acetamidophenyl)thiazolo[5,4-b]pyridin-2-yl)-1-methyl-1H-pyrazole-5-carboxamide]"
15,> 0.5 µM,"CC(=O)N(C)c1ccccc1-c1ccc2nc(NC(=O)c3ccnn3C)sc2n1 [Product 36, 1-methyl-N-(5-(2-(N-methylacetamido)phenyl)thiazolo[5,4-b]pyridin-2-yl)-1H-pyrazole-5-carboxamide]"
